Reference: paper PMC3127140, “In Vivo Anti-Tumor Activity of Polypeptide HM-3 Modified by Different Polyethylene Glycols (PEG)” (International Journal of Molecular Sciences, 2011)

Test system: Human hepatic carcinoma SMMC-7721 cell line
Experiment: Inhibitory effect on growth of human hepatoma SMMC-7721 xenografts in nude mice (tumor weight / tumor volume)
Type: in vivo, BALB/c nude mouse
Settings: SMMC-7721 xenograft in BALB/c nude mice, n = 6 per group, i.v. for 21 days, tumors weighed the next day; (W − Wt)/W versus normal saline control; Taxol 10 mg/kg twice a week; HM-3 3 mg/(kg·d) twice a day; ALD-mPEG5k-HM-3 11.4 mg/(kg·d) once a day; ALD-mPEG10k-HM-3 and SC-mPEG10k-HM-3 19.9 mg/(kg·2d) every two days; SC-mPEG20k-HM-3 36.7 mg/(kg·2d) every two days (dose as total PEG conjugate)
Protocol: Human hepatic carcinoma SMMC-7721 cell line was purchased from American type Cell Culture (ATCC, Shanghai, China) and maintained in Dulbecco’s modified Eagle’s medium (DMEM) with 10% fetal bovine serum and antibiotics. BALB/c nude female mouse (SPF grade, 4–5 w, 20.9 ± 0.492 g) were purchased from the Shanghai Laboratory Animal Center of the Chinese Academy of Sciences.
SMMC-7721 cells were cultured in DMEM medium under 5% CO2/saturated humidified air at 37 °C. Cells were digested with the mixture of the trypsin (0.25%) and EDTA (0.02%) at logarithmic growth phase and passaged every 3–4 day. […]
All the mice (20 g) were administrated intravenously for 21 days and the tumor volumes were measured every two days. […] Antitumor ratio determined by the tumor volumes is (V − Vt)/V (V is the average tumor volume of the control group, and Vt is the average tumor volume of the treated group). The antitumor ratio by the tumor weights was also calculated as (W − Wt)/W (W is the average tumor weight of the control group, and Wt is the average tumor weight of the treatment group).
The data was analyzed using the statistics software SPSS13.0, which are expressed as mean ± SD. Statistical significance was assessed using the Student t test. […]

In the case of `CC(=O)O[C@H]1C(=O)[C@@]2(C)[C@H]([C@H](OC(=O)c3ccccc3)[C@]3(O)C[C@H](OC(=O)[C@H](O)[C@@H](NC(=O)c4ccccc4)c4ccccc4)C(C)=C1C3(C)C)[C@]1(OC(C)=O)CO[C@@H]1C[C@@H]2O` [Taxol, paclitaxel], the “Tumor weight inhibition rate (inhibition rate of average tumor weight)” value is reported as 44.50%.
